Test system: tumor spheroids of MDA-MB-231 cells and murine bone marrow derived macrophages
Assay: 3D co-culture spheroid viability, alamar blue assay
Format: cell-based, human; murine
Settings: doxorubicin 1.25 μM alone

Which “3D spheroid viability versus vehicle control” value does the source give for `COc1cccc2c1C(=O)c1c(O)c3c(c(O)c1C2=O)C[C@@](O)(C(=O)CO)C[C@@H]3O[C@H]1C[C@H](N)[C@H](O)[C@H](C)O1` [doxorubicin] here?
The value was about 100%.
